The text below walks through data of patent publication US20170182058A1, “TREATMENT OF RETT SYNDROME” (priority 2014, published 2017).

Data set [1] is described as follows: in vitro permeability of a layer of CaCo-2 cells. It is filed as in vitro ADME, human. The note with it: human, Caco-2; test conc 50 μM, assay duration 2 hr; read-out: mean A->B Papp (apparent permeability). (Passage across Caco-2 layers is used to estimate intestinal permeability.)
The next data set concerns CaCo-2 cells. In words: in vitro permeability of a layer of CaCo-2 cells. To be noted: based on in vitro CaCo-2 permeability. It counts as in vitro ADME, human.
Another data set is described as follows: plasma stability. It is filed as in vitro ADME. To be noted: based on animal and in-vitro studies.
For data set [2], the system named is mice. In words: enhancement of learning in animals. It is filed as in vivo. The note with it: compared with galantamine. The text has this:
Potentiation of nicotinic receptors facilitates release of a number of different neurotransmitters including dopamine, glutamate, and GABA.

The test system of the next data set is nicotinic receptors. In words: neuronal electrophysiological activity via nicotinic receptors. To be noted: galantamine positive allosteric modulatory site on nicotinic receptors.
The test system of data set [3] is Mecp2 mice. As to the kind of experiment: locomotor activity, photobeam activity system. It is filed as in vivo. The note with it: 0.1-20 mg/kg. On the procedure:
Locomotor activity was monitored using methods described previously (Shaevitz et al. 2013 Genes Brain Behav. 12(7): 732-40. doi: […]). Mecp2 mutant males (between 1 and 3 months old) and females (between 3 and 6 months old) and age-matched controls were monitored for one-hour prior to and 12 hours after drug (or vehicle: 20% DMSO in saline) administration (one set of mice received IP injections and one set of mice received oral gavage) in doses that ranged from 0.1-20 mg/kg). Activity was measured across the 12-h dark cycle using a photobeam activity system (San Diego Instruments, San Diego, Calif., USA). Mice were placed individually into a cage (47×25×21 cm) inside a rectangular arena equipped with a 3×8 array of photobeams. The average number of ambulatory (two adjacent) and fine (repeated single) beam breaks per hour over the 12 h was compared. [N=2 mice/group at each dose and each administration route; for the vehicle controls, N=6 WT/group; N=6 Mecp2/group]. Data were analyzed using repeated measures analysis of variance.

The subject of data set [4] is Mecp2 mice. As to the kind of experiment: respiratory function, plethysmograph. To be noted: IP or gavage, 0.1-20 mg/kg. It counts as in vivo. The procedure:
Respiratory function was monitored in a plethysmograph (EMKA Technologies) for 30 minutes prior to and 1 hour after drug administration (one set of mice received IP injections and one set of mice received oral gavage). [N=2 mice/group at each dose and each administration route; for the vehicle controls, N=6 WT/group; N=6 Mecp2/group]. Data were analyzed using repeated measures analysis of variance.

For another data set, the system named is female Mecp2 mice. As to the kind of experiment: novel object recognition (NOR) task. It counts as in vivo. The note with it: Mecp2 females. The procedure: Cognitive function was assessed using the novel object recognition (NOR) task using methods previously described (Schaevitz et al. 2013). […] Novel object memory was assessed. during three sessions. This task relies on the innate tendency of a mouse to explore unfamiliar objects vs. familiar objects. Testing was performed in an open-field arena. Twenty-four hours prior to training, mice were habituated to the arena for 10 min. Ninety minutes before training, the mice were administered drug or vehicle (0.1, 0.5, 1.0, 2.5 and 5.0 mg/kg IP). During training, mice were given 10 min to explore two identical Lego Objects (A +A). Short- and long-term object memory were assessed in two subsequent sessions (24 h after the completion of training) during which mice were given 10 min to explore the familiar (A) or a novel (B or C) object. The duration of exploration (defined as the mouse's snout or forelimbs physically touching or approaching within 1 cm of an object) of familiar and novel objects was measured. The amount of time spent exploring the novel object over the total time exploring both novel and familiar objects in each session was used to measure object memory. [N==6/dose of 0.1, 0.5 and 1.0; N=1/dose of 2.5 and 5.0 mg/kg; for vehicle N=6 WT and N=6 Mecp2 mice.]
For the novel Objection recognition task data, we created a matrix of all wildtype and. Mecp2 females who were administered the vehicle and a second matrix comparing Mecp2 females with and without the drug (all doses combined).

For a further data set, the target named is cholinesterase. To be noted: cholinesterase inhibitor (Han et al 1991); cited from earlier work.
Data set [5] deals with mice. To be noted: cited from earlier work; for adverse effects at high doses: 50-100 mg/kg.
The mark [6] stands for this setting: drug IP, all doses 0.1-5.0 mg/kg combined.

Like-named read-outs stand apart in the source and are kept apart here. Bounds are passed on as bounds.

Usually Papp A→B stands for the apparent permeability from the apical to the basolateral side of a cell layer. In the case of `CNC(=C[N+](=O)[O-])NCCSCc1ccc(CN(C)C)o1` [Ranitidine, reference compound], the Papp A→B at 2 hr, 50 μM in [1] is 1.1 ×10⁻⁶ cm/s.

Take `CC(=O)CC(c1ccccc1)c1c(O)c2ccccc2oc1=O` (stereo not drawn) [Warfarin, reference compound]: in data set [1], the Papp A→B at 2 hr, 50 μM is 34.7 ×10⁻⁶ cm/s.

As usually defined, the IC50 is the concentration that gives 50% inhibition. In the case of `CCCCNC(=O)O[C@H]1C=C[C@@]23CCN(C)Cc4ccc(OC)c(c42)O[C@H]3C1` [galantamine n-butylcarbamate], the Papp A→B at 2 hr, 50 μM in data set [1] was found to be 20.8 ×10⁻⁶ cm/s. In addition, the predicted oral bioavailability in the data set on CaCo-2 cells is on record as 80%. The stability in plasma result in “plasma stability” is given as “stable in plasma”. For the same compound, in the data set with mice [2], the enhancing learning result is “effective in enhancing learning at lower doses than galantamine”. Further, the neuronal electrophysiological activity result in the data set with nicotinic receptors was “enhances neuronal electrophysiological activity”. In addition, in the data set on Mecp2 mice [3] (Mecp2 mice of both sexes and controls, from locomotor and respiratory tests), the safety and tolerability entry is “safe and well tolerated”. Moreover, the locomotor activity result in the data set with Mecp2 mice [3] (Mecp2 mice of either sex, IP or gavage) was “did not impair locomotor activity”. The “ambulatory and fine motor movements” value with Mecp2 mice [3] (all doses tested, IP or oral gavage) was “not significant altered”. Besides, in the data set on Mecp2 mice [4], the respiratory activity result is given as “did not affect respiratory activity”. In the data set with female Mecp2 mice (setting [6]), the “NOR scores = or below 0.5 (share of mice that did not learn)” value amounted to 65% and the “NOR scores above 0.5 (share of mice that learned)” value amounted to 35%. The “NOR task performance versus vehicle” value in the data set with female Mecp2 mice (Chi square p = 0.0321) is “improves memory for a novel object and cognitive performance”. In addition, the IC50 on cholinesterase was 1090 nM. Also, the “adverse effects at high doses” value in the data set with mice [5] (listed as Galantamine n-butylcarbamate) was “affects cardiac and motor functions”. For the same compound, in the data set on mice [5] (listed as n-butylcarbamate), the “adverse effects at high doses” value was “wobbly and off-balance with rapid heart rate still present at 4 hours, but were recovered at 24 hours”. In addition, the “lethality (no lethality up to dose)” value in the data set with mice [5] is above 100 mg/kg.
